From patent publication US8932563B2, “Higher loading zinc-containing films” (Colgate-Palmolive Company, priority 2009, dated 2015)

Experiment: Zinc uptake from toothpaste onto artificial soft substrate
Assay type: in vitro ADME
Conditions: for zinc uptake, ppm: Vitro-Skin incubated 1 hour, 1:2 dilution
Method: Zinc uptake experiments were performed to compare the amount of zinc delivered to an artificial soft substrate using the same level of zinc oxide films in toothpaste with different loadings. The films (Zn30 and Zn50) were incorporated into a MaxFresh Nite toothpaste base. The experiments included comparing:
Certain parameters for testing were kept constant for the experiments. They included:
Vitro-Skin incubated for 1 hour
1:2 dilution of toothpaste to deionized water
Two 5 mL washes of deionized water for 10 seconds
There also was an increase in binding with an increase in film concentration. The zinc uptake method quantifies the amount of zinc delivered to a soft substrate. Vitro-Skin was used as a model substrate because it mimics human skin. […] Also the films act as a delivery vehicle to deposit more zinc onto the substrate than its equivalent in powder form.

[1] = 1.0% film or powder in toothpaste

[O-2].[Zn+2] [ZnO Powder, Zinc Oxide]
zinc uptake, μg/cm^2 (0.15% powder in toothpaste): 5.7 μg/cm^2
zinc uptake, ppm (0.15% powder in toothpaste): 2.05 ppm
zinc uptake, μg/cm^2 [1]: 21.5 μg/cm^2
zinc uptake, ppm [1]: 59.7 ppm
